Laboratory results as given in patent publication US20090281156A1, “ENHANCING PHOTOSTABILIZATION OF OXYMETAZOLINE” (Schering-Plough Healthcare Products, Inc,, priority 2007, published 2009).
Where a name gives a salt, the structure may show the parent alone.

Columns and labels:
[1] = ICH photostability testing of oxymetazoline HCl solutions (quartz container, twice ICH exposure); assay type: physicochemical; conditions: for drug degraded after UV light exposure: McIlvaine buffer pH=6
Protocol: 0.05% (w/v) oxymetazoline HCl solutions with pH ranging from 4 to 6 were prepared using McIlvaine buffer systems (Solutions I-III). At each pH level, 0.05% oxymetazoline HCl solutions containing either Povidone 29-32 (approximately 3% w/v) or PEG 1450 (approximately 5% w/v) were also made ([…]).
Example embodiments were tested for photostability according to methods described in ICH Harmonized Tripartite Guidelines Stability Testing: Photostability Testing of New Drug Substances and Products. Each sample for photostability studies was placed in an enclosed quartz container and exposed to twice the exposure required by ICH photostability guideline (total exposure of 2.4 million lux hours and an integrated near UV energy of 400 watt hours/square meter).
All of the observed oxymetazoline HCl degradation peaks were calculated and presented in percentage.

[2] = exemplary conventional formulation; cited from earlier work
[3] = in vivo; cited from earlier work

Compound: Cc1cc(C(C)(C)C)c(O)c(C)c1CC1=NCCN1 [oxymetazoline HCl, 6-tert-butyl-3-(2-imidazolin-2-ylmethyl)-2,4-dimentylphenol hydrochloride]
- drug degraded after UV light exposure ([1]; 24 hours of UV light exposure): roughly 9%
- drug degraded after UV light exposure ([1]; 40 hours of UV light exposure): ~72%
- light sensitivity ([1]; aqueous solution): light sensitive
- increase in the total degradation on incorporating PEG 1450 ([1]; pH 5, T=40 hours, PEG 1450 approximately 5% w/v): roughly 4 fold
- increase in the total photodegradation in presence of Povidone K29-32 ([1]; pH=6, T=40 hours, Povidone K29-32 approximately 3% w/v): about 21%

Compound: CCOC(=O)N1CCC(=C2c3ccc(Cl)cc3CCc3cccnc32)CC1 [loratadine]
- antihistaminic effect lasts [2]: > 24 h

Compound: CN1CCC(=C2c3ccccc3CCc3cccnc32)CC1 [Azatadine]
- elimination half-life [3]: 9 to 12 h
